In publication PMC7343282, “Tissue Distribution of Several Series of Cationic Surfactants in Rainbow Trout (Oncorhynchus mykiss) Following Exposure via Water” (Environmental Science & Technology, 2020):

What was measured:
[1] = system: rainbow trout (Oncorhynchus mykiss); assay: Contribution of tissues to fish body burden; assay type: in vivo; conditions: for Contribution of Blood to the fish's body burden / Contribution of Gills to the fish's body burden / Contribution of Liver to the fish's body burden / Contribution of Mucus to the fish's body burden / Contribution of Other tissue (all apart from blood, liver, gills and skin; muscle concentration assumed) to body burden / Contribution of Skin to the fish's body burden: fraction; for % contribution to body burden, Gills / % contribution to body burden, Mucus / % contribution to body burden, Liver / % contribution to body burden, Skin / % contribution to body burden, Muscle: mean across fish, Figure 1; for % contribution to body burden, Liver / % contribution to body burden, Skin / % contribution to body burden, Muscle: Q10, Q14 maximum estimates; for % contribution to body burden, Muscle: includes all tissues not specifically analyzed
Excerpt: To calculate the quantity of the test chemical in the different tissues, the amount of each tissue in the fish was estimated and multiplied by the concentration in that tissue. The test chemical quantities in the different tissues were then summed to give the body burden in each fish. The total weight of the fish and the weight of the liver and gills were available from the dissection (Table S16). For skin and mucus, the estimated outer surface area of the fish was used. We note that the distinction between mucus and skin is an operational one determined by the extraction method; mucus can be viewed as a more readily extracted fraction of the test chemical residues at the fish surface. The volume of blood was taken as 0.0495 mL g^–1 fish.[30] The remaining tissue (difference between the weight of the whole fish and the weight of liver, gills, skin, and blood) was assumed to have the concentration measured in the muscle. The contribution of the different tissues to the body burden is given for each fish in Table S17, and the average contribution across all fish is plotted in Figure 1. All of the tissues, with the exception of blood, contribute at least 10% of the body burden for at least half of the test chemicals. There is no consistent negative correlation between the fraction of chemical associated with blood, muscle, and liver (tissues where the residue originates entirely from systemic uptake) and alkyl chain length (a measure of hydrophobicity). Thus, although adsorption to fish surfaces appears to play a significant role, its contribution to body burden cannot be simply predicted from surfactant hydrophobicity. In the following, we examine uptake in individual tissues.

[2] = Table S2; cited from earlier work

## CCCCCCCCCN [P9, Nonylamine]
[1]; Fish #1
  Contribution of Blood to the fish's body burden: 0.016
  Contribution of Gills to the fish's body burden: 0.36
  Contribution of Liver to the fish's body burden: 0.09
  Contribution of Mucus to the fish's body burden: 0.38
  Contribution of Other tissue (all apart from blood, liver, gills and skin; muscle concentration assumed) to body burden: 0.08
  Contribution of Skin to the fish's body burden: 0.07
[1]; Fish #2
  Contribution of Blood to the fish's body burden: 0.017
  Contribution of Gills to the fish's body burden: 0.26
  Contribution of Liver to the fish's body burden: 0.20
  Contribution of Mucus to the fish's body burden: 0.23
  Contribution of Other tissue (all apart from blood, liver, gills and skin; muscle concentration assumed) to body burden: 0.14
  Contribution of Skin to the fish's body burden: 0.15
[1]; Fish #3
  Contribution of Blood to the fish's body burden: 0.021
  Contribution of Liver to the fish's body burden: 0.17
  Contribution of Mucus to the fish's body burden: 0.20
  Contribution of Other tissue (all apart from blood, liver, gills and skin; muscle concentration assumed) to body burden: 0.14
  Contribution of Skin to the fish's body burden: 0.16
[1]; Fish #4
  Contribution of Blood to the fish's body burden: 0.010
  Contribution of Gills to the fish's body burden: 0.28
  Contribution of Liver to the fish's body burden: 0.19
  Contribution of Mucus to the fish's body burden: 0.28
  Contribution of Other tissue (all apart from blood, liver, gills and skin; muscle concentration assumed) to body burden: 0.12
  Contribution of Skin to the fish's body burden: 0.11
[1]; Fish #5
  Contribution of Blood to the fish's body burden: 0.012
  Contribution of Gills to the fish's body burden: 0.35
  Contribution of Liver to the fish's body burden: 0.08
  Contribution of Mucus to the fish's body burden: 0.36
  Contribution of Other tissue (all apart from blood, liver, gills and skin; muscle concentration assumed) to body burden: 0.12
  Contribution of Skin to the fish's body burden: 0.09
[1]; Fish #6
  Contribution of Blood to the fish's body burden: 0.018
  Contribution of Gills to the fish's body burden: 0.26
  Contribution of Liver to the fish's body burden: 0.08
  Contribution of Mucus to the fish's body burden: 0.35
  Contribution of Other tissue (all apart from blood, liver, gills and skin; muscle concentration assumed) to body burden: 0.10
  Contribution of Skin to the fish's body burden: 0.19
[1]; Mean
  Contribution of Blood to the fish's body burden: 0.016
  Contribution of Gills to the fish's body burden: 0.30
  Contribution of Liver to the fish's body burden: 0.14
  Contribution of Mucus to the fish's body burden: 0.30
  Contribution of Other tissue (all apart from blood, liver, gills and skin; muscle concentration assumed) to body burden: 0.12
  Contribution of Skin to the fish's body burden: 0.13
[1]
  % contribution to body burden, Gills: 30%
  % contribution to body burden, Mucus: 30%
  % contribution to body burden, Liver: 14%
  % contribution to body burden, Skin: 13%
  % contribution to body burden, Muscle: 12%
[2]
  pKa: 10.5

## CCCCCCCCCCCCN [P12, Dodecylamine]
[1]; Fish #1
  Contribution of Blood to the fish's body burden: 0.014
  Contribution of Gills to the fish's body burden: 0.34
  Contribution of Liver to the fish's body burden: 0.16
  Contribution of Mucus to the fish's body burden: 0.19
  Contribution of Other tissue (all apart from blood, liver, gills and skin; muscle concentration assumed) to body burden: 0.15
  Contribution of Skin to the fish's body burden: 0.14
[1]; Fish #2
  Contribution of Blood to the fish's body burden: 0.015
  Contribution of Gills to the fish's body burden: 0.24
  Contribution of Liver to the fish's body burden: 0.22
  Contribution of Mucus to the fish's body burden: 0.12
  Contribution of Other tissue (all apart from blood, liver, gills and skin; muscle concentration assumed) to body burden: 0.16
  Contribution of Skin to the fish's body burden: 0.25
[1]; Fish #3
  Contribution of Blood to the fish's body burden: 0.017
  Contribution of Liver to the fish's body burden: 0.20
  Contribution of Mucus to the fish's body burden: 0.11
  Contribution of Other tissue (all apart from blood, liver, gills and skin; muscle concentration assumed) to body burden: 0.16
  Contribution of Skin to the fish's body burden: 0.23
[1]; Fish #4
  Contribution of Blood to the fish's body burden: 0.011
  Contribution of Gills to the fish's body burden: 0.26
  Contribution of Liver to the fish's body burden: 0.24
  Contribution of Mucus to the fish's body burden: 0.14
  Contribution of Other tissue (all apart from blood, liver, gills and skin; muscle concentration assumed) to body burden: 0.16
  Contribution of Skin to the fish's body burden: 0.19
[1]; Fish #5
  Contribution of Blood to the fish's body burden: 0.010
  Contribution of Gills to the fish's body burden: 0.32
  Contribution of Liver to the fish's body burden: 0.12
  Contribution of Mucus to the fish's body burden: 0.17
  Contribution of Other tissue (all apart from blood, liver, gills and skin; muscle concentration assumed) to body burden: 0.20
  Contribution of Skin to the fish's body burden: 0.18
[1]; Fish #6
  Contribution of Blood to the fish's body burden: 0.018
  Contribution of Gills to the fish's body burden: 0.26
  Contribution of Liver to the fish's body burden: 0.16
  Contribution of Mucus to the fish's body burden: 0.18
  Contribution of Other tissue (all apart from blood, liver, gills and skin; muscle concentration assumed) to body burden: 0.12
  Contribution of Skin to the fish's body burden: 0.26
[1]; Mean
  Contribution of Blood to the fish's body burden: 0.014
  Contribution of Gills to the fish's body burden: 0.28
  Contribution of Liver to the fish's body burden: 0.19
  Contribution of Mucus to the fish's body burden: 0.15
  Contribution of Other tissue (all apart from blood, liver, gills and skin; muscle concentration assumed) to body burden: 0.16
  Contribution of Skin to the fish's body burden: 0.21
[1]
  % contribution to body burden, Gills: 28%
  % contribution to body burden, Mucus: 15%
  % contribution to body burden, Liver: 19%
  % contribution to body burden, Skin: 21%
  % contribution to body burden, Muscle: 16%
[2]
  pKa: 10.5

## CCCCCCCCCCCCCN [P13, tridecylamine]
[1]; Fish #1
  Contribution of Blood to the fish's body burden: 0.013
  Contribution of Gills to the fish's body burden: 0.27
  Contribution of Liver to the fish's body burden: 0.24
  Contribution of Mucus to the fish's body burden: 0.14
  Contribution of Other tissue (all apart from blood, liver, gills and skin; muscle concentration assumed) to body burden: 0.17
  Contribution of Skin to the fish's body burden: 0.17
[1]; Fish #2
  Contribution of Blood to the fish's body burden: 0.014
  Contribution of Gills to the fish's body burden: 0.27
  Contribution of Liver to the fish's body burden: 0.23
  Contribution of Mucus to the fish's body burden: 0.10
  Contribution of Other tissue (all apart from blood, liver, gills and skin; muscle concentration assumed) to body burden: 0.17
  Contribution of Skin to the fish's body burden: 0.21
[1]; Fish #3
  Contribution of Blood to the fish's body burden: 0.016
  Contribution of Liver to the fish's body burden: 0.16
  Contribution of Mucus to the fish's body burden: 0.09
  Contribution of Other tissue (all apart from blood, liver, gills and skin; muscle concentration assumed) to body burden: 0.24
  Contribution of Skin to the fish's body burden: 0.20
[1]; Fish #4
  Contribution of Blood to the fish's body burden: 0.013
  Contribution of Gills to the fish's body burden: 0.35
  Contribution of Liver to the fish's body burden: 0.15
  Contribution of Mucus to the fish's body burden: 0.11
  Contribution of Other tissue (all apart from blood, liver, gills and skin; muscle concentration assumed) to body burden: 0.17
  Contribution of Skin to the fish's body burden: 0.21
[1]; Fish #5
  Contribution of Blood to the fish's body burden: 0.013
  Contribution of Gills to the fish's body burden: 0.28
  Contribution of Liver to the fish's body burden: 0.23
  Contribution of Mucus to the fish's body burden: 0.09
  Contribution of Other tissue (all apart from blood, liver, gills and skin; muscle concentration assumed) to body burden: 0.17
  Contribution of Skin to the fish's body burden: 0.23
[1]; Fish #6
  Contribution of Blood to the fish's body burden: 0.013
  Contribution of Gills to the fish's body burden: 0.26
  Contribution of Liver to the fish's body burden: 0.27
  Contribution of Mucus to the fish's body burden: 0.09
  Contribution of Other tissue (all apart from blood, liver, gills and skin; muscle concentration assumed) to body burden: 0.17
  Contribution of Skin to the fish's body burden: 0.20
[1]; Mean
  Contribution of Blood to the fish's body burden: 0.014
  Contribution of Gills to the fish's body burden: 0.28
  Contribution of Liver to the fish's body burden: 0.21
  Contribution of Mucus to the fish's body burden: 0.10
  Contribution of Other tissue (all apart from blood, liver, gills and skin; muscle concentration assumed) to body burden: 0.18
  Contribution of Skin to the fish's body burden: 0.20
[1]
  % contribution to body burden, Gills: 28%
  % contribution to body burden, Mucus: 10%
  % contribution to body burden, Liver: 21%
  % contribution to body burden, Skin: 20%
  % contribution to body burden, Muscle: 18%
[2]
  pKa: 10.5
